Results as given in patent publication US8722896B2, “Prokineticin receptor antagonists and uses thereof” (The Regents of the University of California, priority 2008, dated 2014).

Target: recombinant PKR1 (Homo sapiens (Human), UniProt Q8TCW9)
Experiment: Aequorin-based Ca2+ mobilization antagonist assay, CHO cells expressing PKR1
Assay type: cell-based
Conditions: not given
Experimental: An aequorin-based luminescent assay for calcium mobilization was used to measure mobilization of intracellular Ca^2+ (Bullock et al., Mol Pharmacol 65, 582-588, 2004). Chinese hamster ovary (CHO) cells stably expressing photoprotein aequorin and recombinant PKR1 or PKR2 were tested by this method. Briefly, the cells were charged in Opti-MEM (Invitrogen) containing 8 μM of coelenterazine cp at 37° C. for 2 hours. Cells were detached by brief typsinization and maintained in Hank's Balanced Salt Solution (HBSS) plus 10 mM HEPES (pH7.5) and 0.1% BSA at about 5×10^5 cells/ml. Luminescence measurements were made using a Berthold luminometer.
All compounds were diluted in HBSS plus 10 mM HEPES (pH7.5) and 0.1% BSA. To test the agonist activity, 100 μl of cells were injected into the tubes with 20 μl of compounds. For antagonist assays, 80 μl cells were incubated in the tubes with 20 μl different concentrations of antagonists at room temperature for 20 minutes, and then 100 μl of recombinant PK2 were injected. The IC50 obtained from the assays were then converted to Ki values using the formula: IC50/(1+[PK2]/EC50PK2).
The following compounds were prepared using the above synthetic routes and protocols by varying the starting materials, reagents or conditions used. The requisite reagents were either commercially available, described in the literature, or readily synthesized by one skilled in the art. The potency of these compounds in antagonizing PK2-stimulated calcium mobilization were tested in Chinese hamster ovary (CHO) cells that stably express recombinant PKR1 or PKR2.

Row | SMILES | Ki [nM]
1 | CC(C)CN(Cc1cc(Cl)c2c(c1)OCCCO2)C(=O)[C@H](C)CNCc1cc(F)c(F)cc1F | 258
2 | Cc1ccc(C)c(CN2CCOC(C(=O)N(Cc3cc(Cl)c4c(c3)OCCCO4)CC(C)C)C2)c1 (racemic) | 83
3 | CC(C)CN(Cc1cc(Cl)c2c(c1)OCCCO2)C(=O)[C@@H]1CCN(Cc2cccc(N)c2)C1 | 133
4 | CCc1c(C)cccc1CN1CC[C@@H](C(=O)N(Cc2cc(Cl)c3c(c2)OCCCO3)CC(C)C)C1 | 226
5 | CC(C)CN(Cc1cc(Cl)c2c(c1)OCCCO2)C(=O)C1CCN(Cc2ccccc2)O1 (racemic) | 2200
6 | CCc1cccc(CN2CC[C@@H](C(=O)N(Cc3cc(Cl)c4c(c3)OCCCO4)CC(C)C)C2)c1 | 88.8
7 | CCc1c(C)cccc1CNCC(C)C(=O)N(Cc1cc(Cl)c2c(c1)OCCCO2)CC(C)C (racemic) | 226

Further lines, results first:

Row | Ki [nM] | SMILES
8 | 38.8 | COc1ccccc1CN1CCC[C@@H](C(=O)N(Cc2cc(Cl)c3c(c2)OCCCO3)CC(C)C)C1
9 | 38 | CC(C)CN(Cc1cc(Cl)c2c(c1)OCCCO2)C(=O)[C@@H]1CCCN(Cc2cccc3[nH]ccc23)C1
10 | 9.42 | CC(C)CN(Cc1cc(Cl)c2c(c1)CCCCO2)C(=O)[C@@H]1CCCN(Cc2cccc3ccn(C)c23)C1
11 | 44 | Cc1cccc(C)c1CNCC(C)C(=O)N(Cc1cc(Cl)c2c(c1)OCCCO2)CC(C)C (racemic)
12 | 16.5 | CC(C)CN(Cc1cc(Cl)c2c(c1)OCCCO2)C(=O)C(C)CNCc1cccc2ccn(C)c12 (centres unmarked)
13 | 4.02 | CC(C)CN(Cc1cc(Cl)c2c(c1)CCCCO2)C(=O)C1CN(Cc2cccc3cc[nH]c23)CCO1 (racemic)
14 | 13 | Cc1cccc(CNCC(C)C(=O)N(Cc2cc(Cl)c3c(c2)OCCCO3)CC(C)C)c1C (racemic)
15 | 3.29 | CC(C)CN(Cc1cc(Cl)c2c(c1)OCCCO2)C(=O)[C@@H]1CCCN(Cc2cccc3c2NCC3)C1
16 | 12.5 | CC(C)CN(Cc1cc(Cl)c2c(c1)OCCCO2)C(=O)C1CN(Cc2cccc3c2ccn3C)CCO1 (racemic)
17 | 19.6 | Cc1ccccc1CNCC(C)C(=O)N(Cc1cc(Cl)c2c(c1)OCCCO2)CC(C)C (racemic)
18 | 37.4 | Cc1ccccc1CN1CCOC(C(=O)N(Cc2cc(Cl)c3c(c2)OCCCO3)CC(C)C)C1 (racemic)
19 | 44.8 | CC(C)CN(Cc1cc(Cl)c2c(c1)OCCCO2)C(=O)C(C)CNCc1cccc2c1OCO2 (centres unmarked)
20 | 11.6 | CC(C)CN(Cc1cc(Cl)c2c(c1)CCCCO2)C(=O)[C@@H]1CCN(Cc2cccc3c2ccn3C)C1
21 | 58.4 | CC(C)CN(Cc1cc(Cl)c2c(c1)OCCCO2)C(=O)C(C)CNCc1cccc2c1OCCO2 (racemic)
22 | 12.8 | COc1ccccc1CN1CC[C@@H](C(=O)N(Cc2ccc3c(c2)OCCCO3)CC(C)C)C1
23 | 24.4 | CC(C)CN(Cc1cc(Cl)c2c(c1)OCCCO2)C(=O)C1CN(Cc2cccc3ccn(C)c23)CCO1 (racemic)
24 | 24 | CC(C)CN(Cc1cc(Cl)c2c(c1)OCCCO2)C(=O)[C@@H]1CCN(Cc2ccc(F)c(N)c2)C1
25 | 38.6 | COc1ccccc1CN1CCC[C@@H](C(=O)N(Cc2ccc3c(c2)OCCCO3)CC(C)C)C1
26 | 29.4 | Cc1cccc(CN2CCC[C@@H](C(=O)N(Cc3cc(Cl)c4c(c3)OCCCO4)CC(C)C)C2)c1
27 | 44.2 | Cc1cccc(CNCC(C)C(=O)N(Cc2cc(Cl)c3c(c2)OCCCO3)CC(C)C)c1 (racemic)
28 | 9.94 | CC(C)CN(Cc1cc(Cl)c2c(c1)CCCCO2)C(=O)C1CN(Cc2cccc3ccn(C)c23)CCO1 (racemic)

Same assay, conditions: antagonism of PK2-stimulated calcium mobilization in CHO cells; Ki = IC50/(1+[PK2]/EC50PK2); read-out: Ki for PKR1

Row | Ki [nM] | SMILES
29 | 8.68 | COc1cc(CN2CCC[C@@H](C(=O)N(Cc3cc(Cl)c4c(c3)OCCCO4)CC(C)C)C2)ccc1F [(−)-(3R)-1-(4-Fluoro-3-methoxybenzyl)-N-(9-chloro-3,4-dihydro-2H-1,5-benzodioxepin-7-ylmethyl)-N-isobutylpiperidine-3-carboxamide]
30 | 104 | CC(C)CN(Cc1cnc2c(c1)OCCCO2)C(=O)C1CCCN(Cc2cccc3cc[nH]c23)C1 (single isomer, unassigned; (-))
31 | 87.3 | CC(C)CN(Cc1cc(Cl)c2c(c1)OCCCO2)C(=O)[C@@H]1CCCN(Cc2cccc3c2N(C)CC3)C1 [(−)-(3R)-1-(N-methyl-indolin-7-ylmethyl)-N-(9-chloro-3,4-dihydro-2H-1,5-benzodioxepin-7-ylmethyl)-N-isobutylpiperidine-3-carboxamide]
32 | 9.66 | COc1cc(CN2CC[C@@H](C(=O)N(Cc3cc(Cl)c4c(c3)OCCCO4)CC(C)C)C2)ccc1F [(−)-(3R)-1-(4-Fluoro-3-methoxybenzyl)-N-(9-chloro-3,4-dihydro-2H-1,5-benzodioxepin-7-ylmethyl)-N-isobutylpyrrolidine-3-carboxamide]
33 | 50 | COc1cc(F)ccc1CNCC(C)C(=O)N(Cc1cc(Cl)c2c(c1)OCCCO2)CC(C)C (racemic) [(±)-2-Methyl-3-((2-methoxy-4-fluoro)benzylamino)-N-(9-chloro-3,4-dihydro-2H-1,5-benzodioxepin-7-ylmethyl)-N-isobutylpropanamide]
34 | 11.6 | COc1cc(CNCC(C)C(=O)N(Cc2cc(Cl)c3c(c2)OCCCO3)CC(C)C)ccc1F (racemic) [(±)-2-Methyl-3-((3-methoxy-4-fluoro)benzylamino)-N-(9-chloro-3,4-dihydro-2H-1,5-benzodioxepin-7-ylmethyl)-N-isobutylpropanamide]
35 | 224 | CC(C)CN(Cc1cc(Cl)c2c(c1)OCC(F)(F)CO2)C(=O)[C@@H]1CCN(Cc2ccccc2)C1 [(−)-(3R)-1-Benzyl-N-(9-chloro-3,3-difluoro-3,4-dihydro-2H-1,5-benzodioxepin-7-ylmethyl)-N-isobutylpyrrolidine-3-carboxamide]
36 | 65.2 | COc1cc(F)ccc1CN1CCC[C@@H](C(=O)N(Cc2cc(Cl)c3c(c2)OCCCO3)CC(C)C)C1 [(−)-(3R)-1-(4-Fluoro-2-methoxybenzyl)-N-(9-chloro-3,4-dihydro-2H-1,5-benzodioxepin-7-ylmethyl)-N-isobutylpiperidine-3-carboxamide]
37 | 7.72 | COc1cc(F)ccc1CN1CC[C@@H](C(=O)N(Cc2cc(Cl)c3c(c2)OCCCO3)CC(C)C)C1 [(−)-(3R)-1-(4-Fluoro-2-methoxybenzyl)-N-(9-chloro-3,4-dihydro-2H-1,5-benzodioxepin-7-ylmethyl)-N-isobutylpyrrolidine-3-carboxamide]

Row | SMILES | Ki [nM]
38 | CC(=O)Oc1cccc(CN2CCOC(C(=O)N(Cc3cc(Cl)c4c(c3)OCCCO4)CC(C)C)C2)c1 (racemic) [(±)-(3R)-1-(3-acetoxybenzyl)-N-(9-chloro-3,4-dihydro-2H-1,5-benzodioxepin-7-ylmethyl)-N-isobutylmorpholine-3-carboxamide] | 8.5
39 | CC(=O)Oc1cccc(CN2CCC[C@@H](C(=O)N(Cc3cc(Cl)c4c(c3)OCCCO4)CC(C)C)C2)c1 [(−)-(3R)-1-(3-acetoxybenzyl)-N-(9-chloro-3,4-dihydro-2H-1,5-benzodioxepin-7-ylmethyl)-N-isobutylpiperidine-3-carboxamide] | 107

System: not listed separately
Experiment: Glucose tolerance test (GTT), mice fed regular chow
Assay type: in vivo
Conditions: 0, 1, 4, 12 and 40 mg/kg of body weight (FIG. 1B)
Experimental: (§1) The compound (3R)-1-Benzyl-N-(9-chloro-3,4-dihydro-2H-1,5-benzodioxepin-7-ylmethyl)-N-isobutyl pyrrolidine-3-carboxamide (3Cl-R-PLP) was dissolved in PEG-400 and then resuspended in water with 8% final concentration of PEG-400.8% PEG-400 in water without drug was used as vehicle. Mice were fed with regular chow. Drug or vehicle was gavaged to mice that were fasted overnight. Two hours later, glucose (2 g/kg of body weight) was injected i.p. and whole venous blood obtained from the tail vein at 0, 15, 30, 90 and 120 min after the injection was measured for glucose by using an automatic glucometer (one Touch, Lifescan, Daly, Calif.).

Row | SMILES | dose dependence of performance in GTT
40 | CC(C)CN(Cc1cc(Cl)c2c(c1)OCCCO2)C(=O)[C@@H]1CCN(Cc2ccccc2)C1 [Example 15, (3R)-1-Benzyl-N-(9-chloro-3,4-dihydro-2H-1,5-benzodioxepin-7-ylmethyl)-N-isobutyl pyrrolidine-3-carboxamide] | dose-dependent effect

Same assay, conditions: 4 mg/kg of body weight, gavage 2 h before glucose 2 g/kg i.p., fasted mice, regular chow (FIG. 1A)

Row | SMILES | glucose clearance in GTT
41 | CC(C)CN(Cc1cc(Cl)c2c(c1)OCCCO2)C(=O)[C@@H]1CCN(Cc2ccccc2)C1 [Example 15, (3R)-1-Benzyl-N-(9-chloro-3,4-dihydro-2H-1,5-benzodioxepin-7-ylmethyl)-N-isobutyl pyrrolidine-3-carboxamide] | improved glucose clearance significantly

System: not listed separately
Experiment: GTT in mice fed high-fat diet (diet-induced hyperglycemia)
Assay type: in vivo
Conditions: 40 mg/kg body weight, mice on high fat diet 8 weeks (FIG. 2)
Experimental: as §1
High fat diet was fed to mice for 8 weeks to induced diet-induced hyperglycemia. GTT test was carried out as described earlier.

Row | glucose clearance in GTT | SMILES
42 | significantly improved glucose clearance | CC(C)CN(Cc1cc(Cl)c2c(c1)OCCCO2)C(=O)[C@@H]1CCN(Cc2ccccc2)C1 [Example 15, (3R)-1-Benzyl-N-(9-chloro-3,4-dihydro-2H-1,5-benzodioxepin-7-ylmethyl)-N-isobutyl pyrrolidine-3-carboxamide]

System: not listed separately
Experiment: Chronic treatment in diet-induced diabetes model, circulating glucose
Assay type: in vivo, mice
Conditions: 0.1 and 0.01 mg/ml in drinking water for two weeks; measured 3, 7 and 14 days; high-fat diet 8 weeks (FIG. 3)
Experimental: Diet-induced diabetes models were created by feeding with high-fat diet for 8 weeks. These mice developed glucose intolerance and hyperglycemia. 3Cl-R-PLP was dissolved in drinking water and given to mice for two weeks. Circulating glucose levels were measured 3, 7 and 14 days after 3Cl-R-PLP treatment.

Row | SMILES | circulating glucose levels
43 | CC(C)CN(Cc1cc(Cl)c2c(c1)OCCCO2)C(=O)[C@@H]1CCN(Cc2ccccc2)C1 [Example 15, (3R)-1-Benzyl-N-(9-chloro-3,4-dihydro-2H-1,5-benzodioxepin-7-ylmethyl)-N-isobutyl pyrrolidine-3-carboxamide] | effectively decreased the glucose levels

System: not listed separately
Experiment: Chronic treatment in db/db mice, glucose levels
Assay type: in vivo
Conditions: 0.1 mg/mL in drinking water, 2 weeks, 10-week old db/db mice, fed and fasting conditions (FIG. 4)
Experimental: Db/db mice are commonly used as genetic models of type II diabetes. 10-week old db/db mice were treated with 3Cl-R-PLP (0.1 mg/mL in drinking water) or vehicle for 2 weeks.

Row | SMILES | glucose levels
44 | CC(C)CN(Cc1cc(Cl)c2c(c1)OCCCO2)C(=O)[C@@H]1CCN(Cc2ccccc2)C1 [Example 15, (3R)-1-Benzyl-N-(9-chloro-3,4-dihydro-2H-1,5-benzodioxepin-7-ylmethyl)-N-isobutyl pyrrolidine-3-carboxamide] | significantly decreased glucose levels
